Source: patent US20250163104A1, “MACROCYCLIC IMMUNOMODULATORS” (priority 2021, published 2025)
*1 amine or outer side, *2 acyl side, *3 side chain or, on linkers, in order; H or OH if unused. Where a SMILES comes first, the peptide text is derived from it. Bridges are numbered along the chain shown (N, C = ends). [ ]: non-standard residue; d: D form. The star is where a group is joined. ξ: configuration not given here. Phe(3-CF3) = N[C@@H](Cc1cccc(C(F)(F)F)c1)C(=O)O; Ala(morpholin-4-yl) = N[C@@H](CN1CCOCC1)C(=O)O; Phe(4-COOH) = N[C@@H](Cc1ccc(C(=O)O)cc1)C(=O)O; X5 = O=C([C@H](Cc1ccc2ncccc2c1)N[*:1])[*:2]; Bip = N[C@@H](Cc1ccc(-c2ccccc2)cc1)C(=O)O; Phe(3-Me) = Cc1cccc(C[C@H](N)C(=O)O)c1; Val(3-OH) = CC(C)(O)[C@H](N)C(=O)O; Benzoyl(4-F) = O=C(c1ccc(F)cc1)*; 4Pal = N[C@@H](Cc1ccncc1)C(=O)O; Cha = N[C@@H](CC1CCCCC1)C(=O)O; Cit = NC(=O)NCCC[C@H](N)C(=O)O; Ile(3ξ) = CCC(C)[C@H](N)C(=O)O; Thr(3ξ) = CC(O)[C@H](N)C(=O)O; Carboxymethyl = O=C(O)C*; Nle = CCCC[C@H](N)C(=O)O; Orn = NCCC[C@H](N)C(=O)O; Pra = C#CC[C@H](N)C(=O)O; Dab = NCC[C@H](N)C(=O)O; Dap = NC[C@H](N)C(=O)O; Propargyl = C#CC*

Biological target: T1, human PD-1 / PD-L1-Ig binding on Jurkat cell line over-expressing human PD-1 (Jurkat-PD-1) (Homo sapiens, UniProt Q15116)
T1 construct: expressed in transfected cells; host or cells: Jurkat
T1 sequence (Q15116 25-288): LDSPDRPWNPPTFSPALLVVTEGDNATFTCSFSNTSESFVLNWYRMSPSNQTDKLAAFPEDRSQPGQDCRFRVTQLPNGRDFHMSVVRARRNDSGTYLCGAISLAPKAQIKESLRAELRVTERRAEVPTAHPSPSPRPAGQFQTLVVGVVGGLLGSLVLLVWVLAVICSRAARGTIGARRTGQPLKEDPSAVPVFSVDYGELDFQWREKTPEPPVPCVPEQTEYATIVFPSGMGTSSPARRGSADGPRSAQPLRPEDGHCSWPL
Assay: Jurkat-PD-1 Cell Binding High-Content Screening Assay (CBA)
Assay type: cell-based
Conditions: Jurkat-PD-1 cells, PE-labeled PD-L1-Ig 20 nM final; read-out: Jurkat HPD1_PDL1 IC50
Method in brief: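 Jurkat cells over-expressing human PD-1, in DMEM/10% FCS, pre-incubated with compound 2 h at 37° C. PE-labeled human PD-L1-Ig (20 nM final) added for 1 h; cells fixed in paraformaldehyde with Hoechst 33342 nuclear stain, washed, and bound fluorescence quantified by high-content imaging.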

Row | SMILES | IC50
1 | CC(C)C[C@H]1NC(=O)[C@H](CCCN)NC(=O)[C@H](Cc2ccc(C(=O)O)cc2)NC(=O)[C@H](Cc2ccc(-c3ccccc3)cc2)NC(=O)[C@H](Cc2ccc(C(=O)O)cc2)NC(=O)[C@H](Cc2cccc(C(F)(F)F)c2)NC(=O)[C@H](CC(N)=O)NC(=O)[C@H](Cc2ccc(C(=O)O)cc2)NC(=O)[C@H](CN2CCOCC2)NC(=O)CSC[C@@H](C(=O)N[C@@H](CCN)C(N)=O)NC(=O)[C@H](CO)NC(=O)[C@H](C(C)(C)O)NC(=O)[C@H](CC2CCCCC2)NC(=O)[C@H](CCN)NC1=O [Example 2719] ({CH2CO}-[Ala(morpholin-4-yl)][Phe(4-COOH)]N[Phe(3-CF3)][Phe(4-COOH)][Bip][Phe(4-COOH)][Orn][dL][Dab][Cha][Val(3-OH)]SC[Dab]-NH2; thioether N-14) | 43.9 nM
2 | C#CCOc1ccc(C[C@@H]2NC(=O)[C@H](C(C)C)NC(=O)[C@H](CC3CCCCC3)NC(=O)[C@H](CCN)NC(=O)[C@@H](CC(C)C)NC(=O)[C@H](CCCN)NC(=O)[C@H](Cc3ccc(OCC(=O)O)cc3)NC(=O)[C@H](Cc3ccc(-c4ccccc4)cc3)NC(=O)[C@H](Cc3ccc(OCC(=O)O)cc3)NC(=O)[C@H](Cc3cccc(C)c3)NC(=O)[C@H](CC(=O)O)NC(=O)[C@H](Cc3ccc(OCC(=O)O)cc3)NC(=O)[C@H](Cc3ccncc3)NC(=O)CSC[C@@H](C(=O)N[C@@H](CCN)C(N)=O)NC2=O)cc1 [Compound 1821] ({CH2CO}-[4Pal]Y(Carboxymethyl)D[Phe(3-Me)]Y(Carboxymethyl)[Bip]Y(Carboxymethyl)[Orn][dL][Dab][Cha]VY(Propargyl)C[Dab]-NH2; thioether N-14) | 191 nM
3 | C#CC[C@H](NC(=O)CNC(=O)[C@@H]1CSCC(=O)N[C@@H](CN)C(=O)N[C@@H](Cc2ccc(OCC(=O)O)cc2)C(=O)N[C@@H](CC(=O)O)C(=O)N[C@@H](Cc2cccc(C)c2)C(=O)N[C@@H](C(C)C)C(=O)N[C@@H](Cc2ccc(-c3ccccc3)cc2)C(=O)N[C@@H](CCCNC(N)=O)C(=O)N[C@@H](CCCN)C(=O)N[C@H](CC(C)C)C(=O)N[C@@H](CCN)C(=O)N[C@@H](CC2CCCCC2)C(=O)N[C@@H](C(C)C)C(=O)N[C@@H]([C@@H](C)O)C(=O)N1)C(=O)O [Compound 2260] ({CH2CO}-[Dap]Y(Carboxymethyl)D[Phe(3-Me)]V[Bip][Cit][Orn][dL][Dab][Cha]VTCG[Pra]-OH; thioether N-14) | 28.1 nM
4 | Cc1cccc(C[C@@H]2NC(=O)[C@H](CC(=O)O)NC(=O)[C@H](Cc3ccc(OCC(=O)O)cc3)NC(=O)[C@H](CCCNC(=N)N)NC(=O)CSC[C@@H](C(N)=O)NC(=O)[C@H]([C@@H](C)O)NC(=O)[C@H](C(C)C)NC(=O)[C@H](CC3CCCCC3)NC(=O)[C@H](CCN)NC(=O)[C@@H](CC(C)C)NC(=O)[C@H](CCCNC(=O)c3ccc(F)cc3)NC(=O)[C@H](Cc3ccc(OCC(=O)O)cc3)NC(=O)[C@H](Cc3ccc(-c4ccccc4)cc3)NC(=O)[C@H](Cc3ccc(O)cc3)NC2=O)c1 [Compound 2050] ({CH2CO}-RY(Carboxymethyl)D[Phe(3-Me)]Y[Bip]Y(Carboxymethyl)[Orn](Benzoyl(4-F))[dL][Dab][Cha]VTC-NH2; thioether N-14) | 121 nM

Compounds with a lower IC50, results first:

Row | IC50 | SMILES
5 | 16.1 nM | CC(C)C[C@H]1NC(=O)[C@H](CCCN)NC(=O)[C@H](CN)NC(=O)[C@H](Cc2ccc(-c3ccccc3)cc2)NC(=O)[C@H](C(C)C)NC(=O)[C@H](Cc2c[nH]c3ccccc23)NC(=O)[C@H](CC(=O)O)NC(=O)[C@H](Cc2ccc(C(=O)O)cc2)NC(=O)[C@H](Cc2ccc(OCC(=O)O)cc2)NC(=O)CSC[C@@H](C(=O)N[C@@H](C)C(N)=O)NC(=O)[C@H](CO)NC(=O)[C@H](C(C)C)NC(=O)[C@H](CC2CCCCC2)NC(=O)[C@H](CCN)NC1=O [Compound 2540] ({CH2CO}-Y(Carboxymethyl)[Phe(4-COOH)]DWV[Bip][Dap][Orn][dL][Dab][Cha]VSCA-NH2; thioether N-14)
6 | 2.3 nM | CC(C)C[C@H]1NC(=O)[C@H](CCCN)NC(=O)[C@H](Cc2ccc(C(=O)O)cc2)NC(=O)[C@H](Cc2ccc(-c3ccccc3)cc2)NC(=O)[C@H](Cc2ccc3ncccc3c2)NC(=O)[C@H](Cc2cccc(C(F)(F)F)c2)NC(=O)[C@H](CC(=O)O)NC(=O)[C@H](Cc2ccc(C(=O)O)cc2)NC(=O)[C@H](CN2CCOCC2)NC(=O)CSC[C@@H](C(=O)N[C@@H](CCN)C(N)=O)NC(=O)[C@H](CCC(=O)O)NC(=O)[C@H](C(C)C)NC(=O)[C@H](CC2CCCCC2)NC(=O)[C@H](CCN)NC1=O [Example 2741] ({CH2CO}-[Ala(morpholin-4-yl)][Phe(4-COOH)]D[Phe(3-CF3)][X5][Bip][Phe(4-COOH)][Orn][dL][Dab][Cha]VEC[Dab]-NH2; thioether N-14)
7 | 13.9 nM | CC[C@H](C)[C@@H]1NC(=O)[C@H](Cc2ccc(-c3ccccc3)cc2)NC(=O)[C@H](C(C)C)NC(=O)[C@H](Cc2c[nH]c3ccccc23)NC(=O)[C@H](CC(=O)O)NC(=O)[C@H](Cc2ccc(C(=O)O)cc2)NC(=O)[C@H](Cc2ccc(OCC(=O)O)cc2)NC(=O)CSC[C@@H](C(=O)N[C@@H](C)C(N)=O)NC(=O)[C@H]([C@@H](C)O)NC(=O)[C@H](C(C)C)NC(=O)[C@H](Cc2cccc(F)c2)NC(=O)[C@H](CCN)NC(=O)[C@@H](CC(C)C)NC(=O)[C@H](CCCN)NC1=O [Compound 1670]
8 | 5 nM | CC[C@@H](C)[C@@H]1NC(=O)[C@H](Cc2ccc(-c3ccccc3)cc2)NC(=O)[C@H](C(C)C)NC(=O)[C@H](Cc2cccc(C)c2)NC(=O)[C@H](CC(=O)O)NC(=O)[C@H](Cc2ccc(C(=O)O)cc2)NC(=O)[C@H](Cc2ccncc2)NC(=O)CSC[C@@H](C(=O)N[C@@H](C)C(N)=O)NC(=O)[C@H]([C@@H](C)O)NC(=O)[C@H](C(C)C)NC(=O)[C@H](CC2CCCCC2)NC(=O)[C@H](CCN)NC(=O)[C@@H](CC(C)C)NC(=O)[C@H](CCCN)NC1=O [Compound 1620]
9 | 26.1 nM | CCCC[C@@H]1NC(=O)[C@H](Cc2c[nH]c3ccccc23)NC(=O)[C@H](CC(=O)O)NC(=O)[C@H](Cc2ccc(OCC(=O)O)cc2)NC(=O)[C@H](C(C)O)NC(=O)CSC[C@@H](C(=O)N[C@@H](CC(N)=O)C(=O)O)NC(=O)[C@H](CO)NC(=O)[C@H](C(C)C)NC(=O)[C@H](CC(C)C)NC(=O)[C@H](CCN)NC(=O)[C@@H](CC(C)C)NC(=O)[C@H](CCCN)NC(=O)[C@H](C(C)CC)NC(=O)[C@H](Cc2ccc(-c3ccccc3)cc2)NC1=O (stereo partly drawn) [Compound 2571] ({CH2CO}-[Thr(3ξ)]Y(Carboxymethyl)DW[Nle][Bip][Ile(3ξ)][Orn][dL][Dab]LVSCN-OH; thioether N-14)
10 | 18.1 nM | CC[C@H](C)[C@@H]1NC(=O)[C@H](Cc2ccc(-c3ccccc3)cc2)NC(=O)[C@H](CC(C)C)NC(=O)[C@H](Cc2c[nH]c3ccccc23)NC(=O)[C@H](CC(=O)O)NC(=O)[C@H](Cc2ccc(O)cc2)NC(=O)[C@H](Cc2ccccc2)NC(=O)CSC[C@@H](C(=O)NCC(N)=O)NC(=O)[C@H](CO)NC(=O)[C@H](C(C)C)NC(=O)[C@H](CC(C)C)NC(=O)[C@H](CCN)NC(=O)[C@@H](CC(C)C)NC(=O)[C@H](CCCN)NC1=O [Compound 1230] ({CH2CO}-FYDWL[Bip]I[Orn][dL][Dab]LVSCG-NH2; thioether N-14)
